The test system of data set [1] is X. fastidiosa subsp. fastidiosa IVIA 5387.2.
The test system of the next data set is horse erythrocytes. The conditions noted are these: red cells of horse, 50 µM.
Another data set concerns tobacco leaves. The conditions noted are these: 150 µM; after 48 h.
The subject of a further data set is E. coli 0111:B4 LPS. It is filed as biochemical, Escherichia coli.

Read-outs that look alike come from different tables or passages of the source. Square brackets hold non-standard residues; d marks the D form. Peptide text beside a SMILES is read from it. * marks the point of attachment. Butyryl = CCCC(=O)*

With `CCCC(=O)NCCCC[C@H](NC(=O)[C@H](CCCCN)NC(=O)[C@H](CC(C)C)NC(=O)[C@@H](NC(=O)[C@H](CCCCN)NC(=O)[C@H](CCCCN)NC(=O)[C@@H](Cc1ccccc1)NC(=O)[C@H](CC(C)C)NC(=O)[C@H](CCCCN)NC(=O)[C@H](CCCCN)NC(C)=O)[C@@H](C)CC)C(=O)N[C@@H](CC(C)C)C(N)=O` [BP475, Ac-KKLfKKILKK(COC3H7)L-NH2], the “Bactericidal activity Reduction in viability (Log N0/N)” value in data set [1] (12.5 µM) is 1,04 Log N0/N. Also, in data set [1] (50 µM), the “Bactericidal activity Level” value is “High (key: Very High: very high bactericidal activity (>2.5 log); High: high bactericidal activity (between 2.0 and 2.5 log); Moderate: a moderate activity (between 1.5 and 2.0 log); Low: low active (<1.5 log))”. Also, the “Hemolytic activity (%)” value in the data set on horse erythrocytes is 0%. Besides, the “Phytotoxicity: diameter of the lesion” value in the data set on tobacco leaves was found to be 4 mm.

Take `CCCC(=O)N[C@@H](CCCCN)C(=O)N[C@@H](CCCCN)C(=O)N[C@@H](CC(C)C)C(=O)N[C@H](Cc1ccccc1)C(=O)N[C@@H](CCCCN)C(=O)N[C@@H](CCCCN)C(=O)N[C@H](C(=O)N[C@@H](CC(C)C)C(=O)N[C@@H](CCCCN)C(=O)N[C@@H](Cc1ccc(O)cc1)C(=O)N[C@@H](CC(C)C)C(N)=O)[C@@H](C)CC` [BP485, C3H7CO-KKLfKKILKYL-NH2]: the “Bactericidal activity Reduction in viability (Log N0/N)” value is reported as 0,49 Log N0/N in data set [1] (12.5 µM) and 1,92 Log N0/N in data set [1] (50 µM). Also, the “Bactericidal activity Level” value in data set [1] (50 µM) is “Moderate (key: Very High: very high bactericidal activity (>2.5 log); High: high bactericidal activity (between 2.0 and 2.5 log); Moderate: a moderate activity (between 1.5 and 2.0 log); Low: low active (<1.5 log))”. Moreover, in the data set on horse erythrocytes, the “Hemolytic activity (%)” value came out at 3%. The “Phytotoxicity: diameter of the lesion” value in the data set on tobacco leaves was 3 mm.

With `CCCCCCCCCCCC(=O)NCCCC[C@H](NC(=O)[C@@H](NC(=O)[C@H](CCCCN)NC(=O)[C@H](CCCCN)NC(=O)[C@@H](Cc1ccccc1)NC(=O)[C@H](CC(C)C)NC(=O)[C@H](CCCCN)NC(=O)[C@H](CCCCN)NC(C)=O)[C@@H](C)CC)C(=O)N[C@@H](CCCCN)C(=O)N[C@@H](Cc1ccc(O)cc1)C(=O)N[C@@H](CC(C)C)C(N)=O` [BP490, Ac-KKLfKKIK(COC11H23)KYL-NH2], the “Bactericidal activity Reduction in viability (Log N0/N)” value in data set [1] (3.1 µM) is reported as 1,28 Log N0/N. The “Bactericidal activity Level” value in data set [1] (50 µM) was “High (key: Very High: very high bactericidal activity (>2.5 log); High: high bactericidal activity (between 2.0 and 2.5 log); Moderate: a moderate activity (between 1.5 and 2.0 log); Low: low active (<1.5 log))”. The “Hemolytic activity (%)” value in the data set with horse erythrocytes was found to be 100%. In addition, the “Phytotoxicity: diameter of the lesion” value in the data set with tobacco leaves came out at 6 mm.

On to `CCCCCC(=O)NCCCC[C@H](NC(=O)[C@H](CCCCN)NC(=O)[C@H](CCCCN)NC(=O)[C@@H](Cc1ccccc1)NC(=O)[C@H](CC(C)C)NC(=O)[C@H](CCCCN)NC(=O)[C@H](CCCCN)NC(C)=O)C(=O)N[C@@H](CC(C)C)C(=O)N[C@@H](CCCCN)C(=O)N[C@@H](Cc1ccc(O)cc1)C(=O)N[C@@H](CC(C)C)C(N)=O` [BP494, Ac-KKLfKKK(COC5H11)LKYL-NH2], for which the “LPS neutralization Ratio (treatment/NTC)” value in the data set on E. coli 0111:B4 LPS is 0,51. For the same compound, in data set [1] (50 µM), the “Bactericidal activity Level” value was “Low (key: Very High: very high bactericidal activity (>2.5 log); High: high bactericidal activity (between 2.0 and 2.5 log); Moderate: a moderate activity (between 1.5 and 2.0 log); Low: low active (<1.5 log))”; the “Bactericidal activity Reduction in viability (Log N0/N)” value is on record as 1,21 Log N0/N. The “Hemolytic activity (%)” value in the data set on horse erythrocytes was 0%. The “Phytotoxicity: diameter of the lesion” value in the data set on tobacco leaves stood at 6 mm.

As for `CCCCCC(=O)NCCCC[C@H](NC(=O)[C@H](Cc1ccc(O)cc1)NC(=O)[C@H](CCCCN)NC(=O)[C@H](CC(C)C)NC(=O)[C@@H](NC(=O)[C@H](CCCCN)NC(=O)[C@H](CCCCN)NC(=O)[C@@H](Cc1ccccc1)NC(=O)[C@H](CC(C)C)NC(=O)[C@H](CCCCN)NC(=O)[C@H](CCCCN)NC(C)=O)[C@@H](C)CC)C(N)=O` [BP495, Ac-KKLfKKILKYK(COC5H11)-NH2], the “LPS neutralization Ratio (treatment/NTC)” value in the data set on E. coli 0111:B4 LPS is listed as 0,55. In data set [1] (12.5 µM), the “Bactericidal activity Reduction in viability (Log N0/N)” value is 0,03 Log N0/N. Also, the “Bactericidal activity Level” value in data set [1] (50 µM) was “High (key: Very High: very high bactericidal activity (>2.5 log); High: high bactericidal activity (between 2.0 and 2.5 log); Moderate: a moderate activity (between 1.5 and 2.0 log); Low: low active (<1.5 log))”. The “Hemolytic activity (%)” value in the data set with horse erythrocytes is listed as 0%. The “Phytotoxicity: diameter of the lesion” value with tobacco leaves amounted to 6 mm.

As to `CCCC(=O)NCCCC[C@H](NC(=O)[C@H](Cc1ccc(O)cc1)NC(=O)[C@H](CCCCN)NC(=O)[C@H](CC(C)C)NC(=O)[C@@H](NC(=O)[C@H](CCCCN)NC(=O)[C@H](CCCCN)NC(=O)[C@@H](Cc1ccccc1)NC(=O)[C@H](CC(C)C)NC(=O)[C@H](CCCCN)NC(=O)[C@H](CCCCN)NC(C)=O)[C@@H](C)CC)C(N)=O` [BP496, Ac-KKLfKKILKYK(COC3H7)-NH2] (Ac-KKL[dF]KKILKYK(Butyryl)-NH2), in the data set on E. coli 0111:B4 LPS, the “LPS neutralization Ratio (treatment/NTC)” value is on record as 0,92. For the same compound, in data set [1] (50 µM), the “Bactericidal activity Level” value was “Low (key: Very High: very high bactericidal activity (>2.5 log); High: high bactericidal activity (between 2.0 and 2.5 log); Moderate: a moderate activity (between 1.5 and 2.0 log); Low: low active (<1.5 log))”; the “Bactericidal activity Reduction in viability (Log N0/N)” value is given as 0,69 Log N0/N. The “Hemolytic activity (%)” value with horse erythrocytes was found to be 0%. Besides, the “Phytotoxicity: diameter of the lesion” value in the data set with tobacco leaves is 4 mm.

With `CCCC(=O)NCCCC[C@H](NC(=O)[C@@H](Cc1ccccc1)NC(=O)[C@H](CC(C)C)NC(=O)[C@H](CCCCN)NC(=O)[C@H](CCCCN)NC(C)=O)C(=O)N[C@@H](CCCCN)C(=O)N[C@H](C(=O)N[C@@H](CC(C)C)C(=O)N[C@@H](CCCCN)C(=O)N[C@@H](Cc1ccc(O)cc1)C(=O)N[C@@H](CC(C)C)C(N)=O)[C@@H](C)CC` [BP498, Ac-KKLfK(COC3H7)KILKYL-NH2], in the data set on E. coli 0111:B4 LPS, the “LPS neutralization Ratio (treatment/NTC)” value was 0,40. In data set [1] (50 µM), the “Bactericidal activity Level” value was “Moderate (key: Very High: very high bactericidal activity (>2.5 log); High: high bactericidal activity (between 2.0 and 2.5 log); Moderate: a moderate activity (between 1.5 and 2.0 log); Low: low active (<1.5 log))”; the “Bactericidal activity Reduction in viability (Log N0/N)” value is on record as 1,58 Log N0/N. Also, the “Hemolytic activity (%)” value in the data set with horse erythrocytes was 9%. The “Phytotoxicity: diameter of the lesion” value with tobacco leaves is given as 7 mm.

`CCCC(=O)NCCCC[C@H](NC(=O)[C@H](CC(C)C)NC(=O)[C@@H](NC(=O)[C@H](CCCCN)NC(=O)[C@H](CCCCN)NC(=O)[C@@H](Cc1ccccc1)NC(=O)[C@H](CC(C)C)NC(=O)[C@H](CCCCN)NC(=O)[C@H](CCCCN)NC(C)=O)[C@@H](C)CC)C(=O)N[C@@H](Cc1ccc(O)cc1)C(=O)N[C@@H](CC(C)C)C(N)=O` [BP499, Ac-KKLfKKILK(COC3H7)YL-NH2]: in the data set with E. coli 0111:B4 LPS, the “LPS neutralization Ratio (treatment/NTC)” value is reported as 0,34. The “Bactericidal activity Reduction in viability (Log N0/N)” value in data set [1] (3.1 µM) was 0,63 Log N0/N. Further, the “Bactericidal activity Level” value in data set [1] (50 µM) was “High (key: Very High: very high bactericidal activity (>2.5 log); High: high bactericidal activity (between 2.0 and 2.5 log); Moderate: a moderate activity (between 1.5 and 2.0 log); Low: low active (<1.5 log))”. Further, the “Hemolytic activity (%)” value in the data set with horse erythrocytes came out at 2%. Besides, in the data set on tobacco leaves, the “Phytotoxicity: diameter of the lesion” value amounted to 7 mm.

As for `CCCCCCCCCCCC(=O)NCCCC[C@H](NC(=O)[C@H](CCCCN)NC(=O)[C@H](CCCCN)NC(C)=O)C(=O)N[C@H](Cc1ccccc1)C(=O)N[C@@H](CCCCN)C(=O)N[C@@H](CCCCN)C(=O)N[C@H](C(=O)N[C@@H](CC(C)C)C(=O)N[C@@H](CCCCN)C(=O)N[C@@H](Cc1ccc(O)cc1)C(=O)N[C@@H](CC(C)C)C(N)=O)[C@@H](C)CC` [BP500, Ac-KKK(COC11H23)fKKILKYL-NH2], in data set [1] (50 µM), the “Bactericidal activity Level” value was “Low (key: Very High: very high bactericidal activity (>2.5 log); High: high bactericidal activity (between 2.0 and 2.5 log); Moderate: a moderate activity (between 1.5 and 2.0 log); Low: low active (<1.5 log))”; the “Bactericidal activity Reduction in viability (Log N0/N)” value is 1,37 Log N0/N. Besides, the “Hemolytic activity (%)” value in the data set with horse erythrocytes came out at 99%. Further, in the data set on tobacco leaves, the “Phytotoxicity: diameter of the lesion” value was determined as 8 mm.

`CCCC(=O)NCCCC[C@H](NC(=O)[C@H](CCCCN)NC(=O)[C@H](CC(C)C)NC(=O)[C@@H](NC(=O)[C@H](CCCCN)NC(=O)[C@H](CCCCN)NC(=O)[C@H](Cc1c[nH]cn1)NC(=O)[C@H](CC(C)C)NC(=O)[C@H](CCCCN)NC(=O)[C@H](CCCCN)NC(C)=O)[C@@H](C)CC)C(=O)N[C@@H](CC(C)C)C(N)=O` [BP501, Ac-KKLHKKILKK(COC3H7)L-NH2] (Ac-KKLHKKILKK(Butyryl)L-NH2): in the data set with E. coli 0111:B4 LPS, the “LPS neutralization Ratio (treatment/NTC)” value is given as 0,71. Moreover, in data set [1] (50 µM), the “Bactericidal activity Level” value was “Low (key: Very High: very high bactericidal activity (>2.5 log); High: high bactericidal activity (between 2.0 and 2.5 log); Moderate: a moderate activity (between 1.5 and 2.0 log); Low: low active (<1.5 log))”; the “Bactericidal activity Reduction in viability (Log N0/N)” value is recorded as 0,30 Log N0/N. In the data set on horse erythrocytes, the “Hemolytic activity (%)” value worked out at 2%. Also, in the data set on tobacco leaves, the “Phytotoxicity: diameter of the lesion” value is 0 mm.

Take `CCCC(=O)NCCCC[C@H](NC(C)=O)C(=O)N[C@@H](CCCCN)C(=O)N[C@@H](CC(C)C)C(=O)N[C@H](Cc1ccccc1)C(=O)N[C@@H](CCCCN)C(=O)N[C@@H](CCCCN)C(=O)N[C@H](C(=O)N[C@@H](CC(C)C)C(=O)N[C@@H](CCCCN)C(=O)N[C@@H](Cc1ccc(O)cc1)C(=O)N[C@@H](CC(C)C)C(N)=O)[C@@H](C)CC` [BP545, Ac-K(COC3H7)KLfKKILKYL-NH2]: the “LPS neutralization Ratio (treatment/NTC)” value with E. coli 0111:B4 LPS is reported as 0,56. In addition, in data set [1] (12.5 µM), the “Bactericidal activity Reduction in viability (Log N0/N)” value is recorded as 0,54 Log N0/N. Besides, the “Bactericidal activity Level” value in data set [1] (50 µM) was “High (key: Very High: very high bactericidal activity (>2.5 log); High: high bactericidal activity (between 2.0 and 2.5 log); Moderate: a moderate activity (between 1.5 and 2.0 log); Low: low active (<1.5 log))”. The “Hemolytic activity (%)” value in the data set with horse erythrocytes came out at 5%. Besides, the “Phytotoxicity: diameter of the lesion” value in the data set with tobacco leaves is listed as 4 mm.

These data come from paper PMC12366332 (Applied and Environmental Microbiology, 2025).
